These results are taken from patent publication US5264445A, “(-)-N"-cyano-N-3-pyridyl-N'-1,2,2-trimethylpropylguanidine” (Eli Lilly and Company, priority 1992, dated 1993).

Test [1] concerns spontaneously hypertensive rats. The following applies: cited from earlier work.
Another test has as its system Purkinje fiber. Description: Purkinje fiber assay: reducing the Purkinje fiber action potential duration. The test is classed as cell-based. The following applies: reducing canine Purkinje fiber action potential duration in vitro, ±SEM. On the procedure:
(§1) All six compounds were tested in the Purkinje fiber and canine cephalic vein assays taught by Steinberg et al., Journal of Cardiovascular Pharmacology, 12 (Suppl. 2), S30-S40 (1988). The effective concentration for reducing the Purkinje fiber action potential duration and for relaxing phenylephrine-contracted cephalic veins, respectively, otherwise known as the EC50, was determined for each compound and is reported in Table I.

Test [2] relates to phenylephrine-contracted cephalic veins. Description: Canine cephalic vein assay: relaxing phenylephrine-contracted cephalic veins. The test is classed as cell-based. The settings on record: relaxing phenylephrine-contracted canine cephalic veins in vitro, ±SEM. The procedure: as §1
Test [3] has as its system potassium channels. Description: Potency as potassium channel opener (comparison of isomers). The following applies: compared with its (+) enantiomer, pinacidil, or any of the pinacidil enantiomers. From the text:
Pinacidil is currently undergoing clinical trials to determine its antihypertensive potential. By virtue of the branched N-alkyl side chain, pinacidil is a mixture of two enantiomers. Recently, both enantiomers have been prepared and studied -- see, Weston et al., Drugs, 36 (Suppl. 7), 10 (1988).

Test [4] concerns potassium channels. The settings on record: reported by Weston et al., Drugs, 36 (Suppl. 7), 10 (1988); cited from earlier work.
[5] abbreviates: Canis lupus familiaris, purkinje.

One may read the EC50 as the concentration needed to bring the measured effect to its halfway point. A low value points to an effect from little substance.

As to `CC(N/C(=N\C#N)Nc1ccncc1)C(C)(C)C` (racemic) [(±)-Pinacidil, N"-cyano-N-4-pyridyl-N'-1,2,2-trimethylpropylguanidine], in test [1], the “minimal effective dose (MED) to decrease blood pressure” value is 0.5 mg/kg. For the same compound, the EC50 amounted to 3000 ± 1000 nM in the test on Purkinje fiber (setting [5]) and 760 ± 120 nM in test [2] (Canis lupus familiaris).

In the case of `CC(NC(=NC#N)Nc1cccnc1)C(C)(C)C` (racemic) [N"-cyano-N-3-pyridyl-N'-1,2,2-trimethylpropylguanidine], the “minimal effective dose (MED) to decrease blood pressure” value in test [1] is recorded as 1 mg/kg. The concentration giving a half-maximal response (EC50) in the test on Purkinje fiber (setting [5]) came out at 500 ± 30 nM; in test [2] (Canis lupus familiaris) it was 560 ± 140 nM.

With `CC(NC(=NC#N)Nc1cccnc1)C(C)(C)C` (single isomer, unassigned; (+)) [(+)-N"-cyano-N-3-pyridyl-N'-1,2,2-trimethylpropylguanidine], the values for the 50% effective concentration (EC50) (with Purkinje fiber; in test [2]) were 23000 ± 4700 nM and 6410 ± 1800 nM, respectively.

`CC(NC(=NC#N)Nc1ccncc1)C(C)(C)C` (single isomer, unassigned; (+)) [(+)-Pinacidil]: the figures for the EC50 (with Purkinje fiber; in test [2]) were 55000 ± 9600 nM and 9550 ± 70 nM, respectively.

On to `CC(NC(=NC#N)Nc1cccnc1)C(C)(C)C` (single isomer, unassigned; (-)) [(-)-N"-cyano-N-3-pyridyl-N'-1,2,2-trimethylpropylguanidine], for which, in the test on potassium channels [3], the “relative potency as a potassium channel opener” value is “considerably more potent”. Also, the EC50 with Purkinje fiber was 430 ± 260 nM; in test [2], 90 ± 30 nM.

`CC(NC(=NC#N)Nc1ccncc1)C(C)(C)C` (single isomer, unassigned; (-)) [(-)-Pinacidil]: in the test on potassium channels [4], the “relative potency of pinacidil enantiomers” value is on record as “more potent than the (+) isomer”. The figures for the EC50 (in the test on Purkinje fiber; in test [2]) were 3200 ± 1200 nM and 440 ± 100 nM, respectively.
